{"source": "patent US10688099B2", "about": "“Methods for modulating the amount of RNA transcripts” (PTC Therapeutics, Inc., priority 2013, dated 2020)", "tested_on": "RNA isoforms in PNN 1-46 SMA type I patient-derived fibroblasts", "experiment": "RNA Abundance Modulation (RNA isoform abundance, iFPM, HiSeq RNA sequencing)", "assay_type": "cell-based, human", "conditions": "24 hrs, PNN 1-46 fibroblasts", "experimental": "Cells from a cell line of interest are cultured in conditions sufficient to yield the number of cells capable of generating enough RNA for subsequent sequencing steps. Cells from the tested cell line are contacted with a compound described herein.\nTo culture said cells, they are seeded, at appropriate concentrations in a volume of media in a cell culture container and incubated for 4, 5, 6, 7, 8, 9, 10, or more hours. A concentrated solution of compound in a vehicle (e.g., DMSO) is then added in sufficient volume to result in the intended final concentration of the compound, for example 100 nM, 500 nM, 1 μM, 5 μM, 10 μM, 15 μM, 20 μM, or more. The cells may also be treated with vehicle alone, as a control. A number of replicates of each concentration or control may be made (e.g., 2 replicates). The cells are then incubated at a constant temperature appropriate for cell culture of the particular cell line (e.g., 37° C.) for 6, 12, 18, 24, 48, or more hours. After incubation, the growth medium is removed and the cells are washed with the appropriate buffer (e.g., PBS). Cells are then removed from adherence to the cell culture container by treatment with a solution containing trypsin, and the trypsin subsequently quenched with the appropriate volume of buffer (e.g., DMEM-FBS). The cells are then pelleted with gentle centrifugation (e.g., ≤90×g centrifugal force) and resuspended in a buffer to lyse the cells for extraction of RNA. The cell lysates may then be frozen (e.g., at −80° C.) or, alternately, may immediately be used in a procedure to purify the RNA (e.g. by use of the RNEASY PLUS® minikit). The RNA from cell lysates is eluted in the appropriate volume of buffer (e.g., RNEASE-FREE H2O®). The resulting purified RNA may then be sequenced (e.g., using RNASeq) or analyzed using a human exon array (e.g., by GENECHIP® human exon array) to determine changes in the RNA levels in those cells treated with compound compared to those cells treated only with DMSO. The purified RNA may also be quantified by other methods known in the art.\nUsing the RNA data obtained from sequencing, exon array, or other methods, a statistical analysis can reveal changes in the RNA levels of compound-treated compared with control. For example, t-test p-values may be calculated for the data obtained through sequencing and exon array methods in order to compare compound-treated cells to those treated with the DMSO control. […] Analysis of the sequencing and exon array data may then also yield predictions about the cause of the aberrant amount of an RNA transcript in the cells (e.g., perturbation of RNA splicing, RNA transcription, or RNA stability). These predictions may be further confirmed by methods known in the art. For example, RT-PCR and RT-qPCR may be used to confirm the change in amount of RNA transcripts for one or more particular transcripts of interest.\nFollowing the methods described above in Example 1, PNN 1-46 SMA type I patient-derived fibroblasts were treated with 300 nM or 3 μM Compounds 774 and 808 in 0.5% DMSO.\n700,000 cells were seeded in 10 mL of medium (DMEM plus 10% FBS) in a T-75 flask. Cells were allowed to attach for at least 4 hrs, after which 50 μL of a 200× compound solution (100% DMSO) was added to each well, and the plate was incubated at 37° C. for 24 hrs.\nAt the end of the incubation period, the supernatant was removed and the cells where washed with PBS. TrypLE (Invitrogen) express solution was added (e.g. 1.5 mL per one T75 flask). The flasks were incubated for 3 to 5 min at 37° C. The trypsin was then quenched, e.g., by adding 10 mL DMEM-FBS.\nNext, the cells were pelleted using gentle centrifugation without exceeding 90×g centrifugal force. The supernatant was removed and the cell pellet was re-suspended in 600 μL RLT buffer (the RLT buffer was supplemented with beta-mercaptoethanol according to the RNeasy protocol manual) by pipetting up and down until the pellet was completely dissolved […]"}
{"smiles": "Cc1cn2cc(-c3cc(=O)n4cc(N5CCN(C)CC5)ccc4n3)cc(C)c2n1", "note": "[Compound 808]", "values": [{"measurement": "RNA abundance modulation (effect on isoform fold increase)", "setting": "0.3 μM", "value": "modulates RNA abundance"}, {"measurement": "RNA abundance modulation (effect on isoform fold increase)", "setting": "3 μM", "value": "modulates RNA abundance"}]}
